Laboratory results: PMC5218480 (PLoS ONE, 2017)

System: MV-4-11 cells
Experiment: Gene expression microarray analysis (Affymetrix PrimeView) and GSEA
Assay type: cell-based, human
Design: RFU PODN (11730768_x_at) / Fold change /veh PODN (11730768_x_at) / RFU LINC00158 (11744669_a_at) / Fold change /veh LINC00158 (11744669_a_at) / RFU DUSP10 (11751237_a_at) / Fold change /veh DUSP10 (11751237_a_at) / RFU ID3 (11757404_x_at) / Fold change /veh ID3 (11757404_x_at) / RFU PLEKHG5 (11737974_s_at) / Fold change /veh PLEKHG5 (11737974_s_at) / RFU LRRC4B (11730491_at) / Fold change /veh LRRC4B (11730491_at) / RFU GIMAP4 (11747438_a_at) / Fold change /veh GIMAP4 (11747438_a_at) / RFU KRT8 (11758183_x_at) / Fold change /veh KRT8 (11758183_x_at) / RFU CNN1 (11734310_a_at) / Fold change /veh CNN1 (11734310_a_at) / RFU VPS37D (11726825_at) / Fold change /veh VPS37D (11726825_at) / RFU C10orf10 (11716522_x_at) / Fold change /veh C10orf10 (11716522_x_at) / RFU KIR2DL2 /// KIR2DL4 /// KIR2DL5A /// KIR2DL5B /// KIR2DS1 /// KIR2DS2 /// KIR2DS3 /// KIR2DS4 /// KIR3DL3 /// KIR3DL3 /// KIR3DS1 (11738374_at) / Fold change /veh KIR2DL2 /// KIR2DL4 /// KIR2DL5A /// KIR2DL5B /// KIR2DS1 /// KIR2DS2 /// KIR2DS3 /// KIR2DS4 /// KIR3DL3 /// KIR3DL3 /// KIR3DS1 (11738374_at) / RFU C1QL1 (11718748_at) / Fold change /veh C1QL1 (11718748_at) / RFU TMPRSS4 (11747572_a_at) / Fold change /veh TMPRSS4 (11747572_a_at) / RFU HAMP (11756126_x_at) / Fold change /veh HAMP (11756126_x_at) / RFU RNFT2 (11725882_a_at) / Fold change /veh RNFT2 (11725882_a_at) / RFU NR4A2 (11747474_a_at) / Fold change /veh NR4A2 (11747474_a_at) / RFU ABCC12 (11746883_a_at) / Fold change /veh ABCC12 (11746883_a_at) / RFU TMEM136 (11760407_x_at) / Fold change /veh TMEM136 (11760407_x_at) / RFU CLDN22 /// WWC2 (11732394_at) / Fold change /veh CLDN22 /// WWC2 (11732394_at) / RFU HLA-DPB1 (11760878_x_at) / Fold change /veh HLA-DPB1 (11760878_x_at) / RFU SPINT1 (11716480_a_at) / Fold change /veh SPINT1 (11716480_a_at) / RFU GAP43 (11754022_s_at) / Fold change /veh GAP43 (11754022_s_at) / RFU A4GNT (11735810_at) / Fold change /veh A4GNT (11735810_at) / RFU PRB3 (11715151_x_at) / Fold change /veh PRB3 (11715151_x_at) / RFU TUBB4B (11761932_at) / Fold change /veh TUBB4B (11761932_at) / RFU CAPN14 (11732068_a_at) / Fold change /veh CAPN14 (11732068_a_at) / RFU TMCC2 (11721928_a_at) / Fold change /veh TMCC2 (11721928_a_at) / RFU IRGQ (11745062_a_at) / Fold change /veh IRGQ (11745062_a_at) / RFU FAM174B (11720279_a_at) / Fold change /veh FAM174B (11720279_a_at) / RFU TMPRSS4 (11748680_a_at) / Fold change /veh TMPRSS4 (11748680_a_at) / RFU FAM212B (11763350_a_at) / Fold change /veh FAM212B (11763350_a_at) / RFU PLEKHG5 (11743358_a_at) / Fold change /veh PLEKHG5 (11743358_a_at) / RFU ZSCAN30 (11745921_a_at) / Fold change /veh ZSCAN30 (11745921_a_at) / RFU CMKLR1 (11741424_a_at) / Fold change /veh CMKLR1 (11741424_a_at) / RFU LOC101060620 /// MAPK8IP1 (11723275_at) / Fold change /veh LOC101060620 /// MAPK8IP1 (11723275_at) / RFU SPTSSB (11747773_x_at) / Fold change /veh SPTSSB (11747773_x_at) / RFU PRSS12 (11739890_at) / Fold change /veh PRSS12 (11739890_at) / RFU BIN1 (11741810_x_at) / Fold change /veh BIN1 (11741810_x_at) / RFU WNT11 (11732464_a_at) / Fold change /veh WNT11 (11732464_a_at) / RFU C10orf10 (11716521_a_at) / Fold change /veh C10orf10 (11716521_a_at) / RFU C5orf56 (11738089_at) / Fold change /veh C5orf56 (11738089_at) / RFU CYB561 (11721691_x_at) / Fold change /veh CYB561 (11721691_x_at) / RFU ANKRD19P (11752326_a_at) / Fold change /veh ANKRD19P (11752326_a_at) / RFU OR2T12 /// OR2T33 /// OR2T8 (11738714_s_at) / Fold change /veh OR2T12 /// OR2T33 /// OR2T8 (11738714_s_at) / RFU VCAN (11748164_a_at) / Fold change /veh VCAN (11748164_a_at) / RFU JSRP1 (11732532_at) / Fold change /veh JSRP1 (11732532_at) / RFU KRTAP10-11 (11738290_x_at) / Fold change /veh KRTAP10-11 (11738290_x_at) / RFU MYO3A (11730013_a_at) / Fold change /veh MYO3A (11730013_a_at) / RFU EBF3 (11725865_a_at) / Fold change /veh EBF3 (11725865_a_at) / RFU CAMK2N1 (11719241_x_at) / Fold change /veh CAMK2N1 (11719241_x_at) / RFU C5orf56 (11738088_a_at) / Fold change /veh C5orf56 (11738088_a_at) / RFU OLFML3 (11715873_a_at) / Fold change /veh OLFML3 (11715873_a_at) / RFU LOC100653217 /// NTM (11731650_a_at) / Fold change /veh LOC100653217 /// NTM (11731650_a_at) / RFU MAPK11 (11762145_a_at) / Fold change /veh MAPK11 (11762145_a_at) / RFU FIZ1 (11724087_x_at) / Fold change /veh FIZ1 (11724087_x_at) / RFU OASL (11726364_x_at) / Fold change /veh OASL (11726364_x_at) / RFU SOX15 (11748057_x_at) / Fold change /veh SOX15 (11748057_x_at) / RFU CD79A (11719716_a_at) / Fold change /veh CD79A (11719716_a_at) / RFU HIST1H1D (11736915_at) / Fold change /veh HIST1H1D (11736915_at) / RFU CASKIN2 (11723855_a_at) / Fold change /veh CASKIN2 (11723855_a_at) / RFU LOC730098 (11760151_x_at) / Fold change /veh LOC730098 (11760151_x_at) / RFU OR4N2 (11742367_at) / Fold change /veh OR4N2 (11742367_at) / RFU PRRT2 (11749266_a_at) / Fold change /veh PRRT2 (11749266_a_at) / RFU SNX32 (11753110_a_at) / Fold change /veh SNX32 (11753110_a_at) / RFU CDHR5 (11726645_a_at) / Fold change /veh CDHR5 (11726645_a_at) / RFU RCAN1 (11760418_a_at) / Fold change /veh RCAN1 (11760418_a_at) / RFU FAM167A (11723789_a_at) / Fold change /veh FAM167A (11723789_a_at) / RFU FAM26E (11764081_at) / Fold change /veh FAM26E (11764081_at) / RFU ISYNA1 (11749810_s_at) / Fold change /veh ISYNA1 (11749810_s_at) / RFU ACY1 (11761880_at) / Fold change /veh ACY1 (11761880_at) / RFU 11764098_at / Fold change /veh 11764098_at / RFU SAMD14 (11745864_x_at) / Fold change /veh SAMD14 (11745864_x_at) / RFU NPB (11741838_a_at) / Fold change /veh NPB (11741838_a_at) / RFU TMPRSS6 (11731388_a_at) / Fold change /veh TMPRSS6 (11731388_a_at) / RFU KRTAP10-2 (11738614_at) / Fold change /veh KRTAP10-2 (11738614_at) / RFU ARHGAP8 /// PRR5-ARHGAP8 (11727945_x_at) / Fold change /veh ARHGAP8 /// PRR5-ARHGAP8 (11727945_x_at) / RFU KRTAP5-7 /// NADSYN1 (11734609_at) / Fold change /veh KRTAP5-7 /// NADSYN1 (11734609_at) / RFU RASL12 (11751679_a_at) / Fold change /veh RASL12 (11751679_a_at) / RFU CDKN2B (11736163_a_at) / Fold change /veh CDKN2B (11736163_a_at) / RFU PRF1 (11729649_at) / Fold change /veh PRF1 (11729649_at) / RFU, ZNF638 /// ZNF638-IT1 / Fold change vs veh, ZNF638 /// ZNF638-IT1 / RFU, PANK3 / Fold change vs veh, PANK3 / RFU, SH3YL1 / Fold change vs veh, SH3YL1 / RFU, ZEB2 / Fold change vs veh, ZEB2 / RFU, NRIP1 / Fold change vs veh, NRIP1 / RFU, PTTG1IP / Fold change vs veh, PTTG1IP / RFU, CAPN2 / Fold change vs veh, CAPN2 / RFU, MED14 / Fold change vs veh, MED14 / RFU, SNORA58 / Fold change vs veh, SNORA58 / RFU, C1orf63 / Fold change vs veh, C1orf63 / RFU, LRRFIP1 / Fold change vs veh, LRRFIP1 / RFU, NDUFAF7 / Fold change vs veh, NDUFAF7 / RFU, SLC12A2 / Fold change vs veh, SLC12A2 / RFU, IBTK / Fold change vs veh, IBTK / RFU, ESF1 / Fold change vs veh, ESF1 / Fold change vs veh, TMEM50B / RFU, TAOK1 / Fold change vs veh, TAOK1 / RFU, ACBD3 / Fold change vs veh, ACBD3 / RFU, TMA16 / Fold change vs veh, TMA16 / RFU, RWDD3 / Fold change vs veh, RWDD3 / RFU, BCAT1 / Fold change vs veh, BCAT1 / RFU, EDEM3 / Fold change vs veh, EDEM3 / RFU, TMEM33 / Fold change vs veh, TMEM33 / RFU, WDR75 / Fold change vs veh, WDR75 / RFU, AHCTF1 / Fold change vs veh, AHCTF1 / RFU, TFRC / Fold change vs veh, TFRC / RFU, ZDHHC17 / Fold change vs veh, ZDHHC17 / RFU, NOM1 / Fold change vs veh, NOM1 / RFU, ARL8B / Fold change vs veh, ARL8B / RFU, ZBTB11 / Fold change vs veh, ZBTB11 / RFU, TAMM41 / Fold change vs veh, TAMM41 / RFU, KIAA1704 /// LOC100996395 / Fold change vs veh, KIAA1704 /// LOC100996395 / RFU, ING1 / Fold change vs veh, ING1 / RFU, TRMT61B / Fold change vs veh, TRMT61B / RFU, FUBP3 / Fold change vs veh, FUBP3 / RFU, TP53 / Fold change vs veh, TP53 / RFU, TNKS2 / Fold change vs veh, TNKS2 / RFU, ZFP14 / Fold change vs veh, ZFP14 / RFU, ACTR2 / Fold change vs veh, ACTR2 / RFU, PPP3R1 / Fold change vs veh, PPP3R1 / RFU, PIK3R1 / Fold change vs veh, PIK3R1 / RFU, HNRNPA1 / Fold change vs veh, HNRNPA1 / RFU, RNF170 / Fold change vs veh, RNF170 / RFU, ZNF28 / Fold change vs veh, ZNF28 / RFU, RNGTT / Fold change vs veh, RNGTT / RFU, OGT / Fold change vs veh, OGT / RFU, BRD1 / Fold change vs veh, BRD1 / RFU, MARS / Fold change vs veh, MARS / RFU, ZNF655 / Fold change vs veh, ZNF655 / RFU, FAHD1 / Fold change vs veh, FAHD1 / RFU, BDP1 / Fold change vs veh, BDP1 / RFU, LRRCC1 / Fold change vs veh, LRRCC1 / RFU, ARID1A / Fold change vs veh, ARID1A / RFU, ZNF146 / Fold change vs veh, ZNF146 / RFU, ZNF330 / Fold change vs veh, ZNF330 / RFU, GPN3 / Fold change vs veh, GPN3 / RFU, C9orf123 / Fold change vs veh, C9orf123 / RFU, N4BP2L2 / Fold change vs veh, N4BP2L2 / RFU, ARFIP1 / Fold change vs veh, ARFIP1 / RFU, FAM179B / Fold change vs veh, FAM179B / RFU, BCL10 / Fold change vs veh, BCL10 / RFU, UHRF1BP1L / Fold change vs veh, UHRF1BP1L / RFU, BET1 / Fold change vs veh, BET1 / RFU, CNOT2 / Fold change vs veh, CNOT2 / RFU, ZNF268 / Fold change vs veh, ZNF268 / Fold change vs veh, ZNF507 / RFU, DGCR2 / Fold change vs veh, DGCR2 / RFU, WDSUB1 / Fold change vs veh, WDSUB1 / Fold change vs veh, HSP90B1 /// MIR3652 / RFU, ADSS / Fold change vs veh, ADSS / RFU, GK / Fold change vs veh, GK / RFU, ZNF148 / Fold change vs veh, ZNF148 / RFU, TAF9 / Fold change vs veh, TAF9 / RFU, SLC1A5 / Fold change vs veh, SLC1A5 / RFU, SLMO2 / Fold change vs veh, SLMO2 / RFU, ABCC4 / Fold change vs veh, ABCC4 / RFU, LOC101060439 /// RAP1B / Fold change vs veh, LOC101060439 /// RAP1B / RFU, RFX7 / Fold change vs veh, RFX7 / RFU, GTPBP10 / Fold change vs veh, GTPBP10 / RFU, CNEP1R1 / Fold change vs veh, CNEP1R1 / RFU, BIVM-ERCC5 /// ERCC5 / Fold change vs veh, BIVM-ERCC5 /// ERCC5 / RFU, ILF3 / Fold change vs veh, ILF3 / RFU 11762660_at / Fold change /veh 11762660_at / RFU VCAN (11757783_s_at) / Fold change /veh VCAN (11757783_s_at) / RFU DDX43 (11728927_at) / Fold change /veh DDX43 (11728927_at) / RFU KRT8 (11758188_x_at) / Fold change /veh KRT8 (11758188_x_at) / RFU NKD1 (11759106_at) / Fold change /veh NKD1 (11759106_at) / RFU SRD5A1 (11742802_a_at) / Fold change /veh SRD5A1 (11742802_a_at) / RFU TPSAB1 /// TPSB2 (11721975_s_at) / Fold change /veh TPSAB1 /// TPSB2 (11721975_s_at) / RFU GSTM3 (11746129_a_at) / Fold change /veh GSTM3 (11746129_a_at) / RFU IL23R (11737362_x_at) / Fold change /veh IL23R (11737362_x_at) / RFU TMEM51 (11727254_a_at) / Fold change /veh TMEM51 (11727254_a_at) / RFU PIWIL2 (11732686_x_at) / Fold change /veh PIWIL2 (11732686_x_at) / RFU ORM1 (11744905_x_at) / Fold change /veh ORM1 (11744905_x_at) / RFU CCDC152 (11743942_at) / Fold change /veh CCDC152 (11743942_at) / RFU ECM1 (11717891_a_at) / Fold change /veh ECM1 (11717891_a_at) / RFU IL23R (11748794_a_at) / Fold change /veh IL23R (11748794_a_at) / RFU TNFAIP8L3 (11732012_x_at) / Fold change /veh TNFAIP8L3 (11732012_x_at) / RFU MBOAT4 (11741988_at) / Fold change /veh MBOAT4 (11741988_at) / RFU 11764193_at / Fold change /veh 11764193_at / RFU TMEM53 (11763286_at) / Fold change /veh TMEM53 (11763286_at) / RFU MAGEB2 (11727129_at) / Fold change /veh MAGEB2 (11727129_at) / RFU TMEM200A (11744735_a_at) / Fold change /veh TMEM200A (11744735_a_at) / RFU CCDC152 (11751479_a_at) / Fold change /veh CCDC152 (11751479_a_at) / RFU FAM211A (11726209_a_at) / Fold change /veh FAM211A (11726209_a_at) / RFU RGS16 (11746705_a_at) / Fold change /veh RGS16 (11746705_a_at) / RFU VCAN (11755009_s_at) / Fold change /veh VCAN (11755009_s_at) / RFU RHOB (11743442_s_at) / Fold change /veh RHOB (11743442_s_at) / RFU RGS16 (11720943_a_at) / Fold change /veh RGS16 (11720943_a_at) / RFU RGS16 (11720944_at) / Fold change /veh RGS16 (11720944_at) / RFU, VPS4B / Fold change vs veh, VPS4B / RFU, CREB1 / Fold change vs veh, CREB1 / RFU, DNAJC13 / Fold change vs veh, DNAJC13 / RFU, GNAQ / Fold change vs veh, GNAQ / RFU, CDK5R1 / Fold change vs veh, CDK5R1 / RFU, ZRANB3 / Fold change vs veh, ZRANB3 / RFU, CUL4A / Fold change vs veh, CUL4A / RFU, CCNY / Fold change vs veh, CCNY / RFU, UFL1 / Fold change vs veh, UFL1 / RFU, COG3 / Fold change vs veh, COG3 / RFU, DIAPH2 / Fold change vs veh, DIAPH2 / RFU, SKA2 / Fold change vs veh, SKA2 / RFU, AFF3 / Fold change vs veh, AFF3 / RFU, LMF1 / Fold change vs veh, LMF1 / RFU, IPO11 / Fold change vs veh, IPO11 / RFU, DFFB / Fold change vs veh, DFFB / RFU, FOXP1 / Fold change vs veh, FOXP1 / RFU, CARD8 / Fold change vs veh, CARD8 / RFU, STRN3 / Fold change vs veh, STRN3 / RFU, ADK / Fold change vs veh, ADK / RFU, RASSF2 / Fold change vs veh, RASSF2 / RFU, WIPF1 / Fold change vs veh, WIPF1 / RFU, LARP1B / Fold change vs veh, LARP1B / RFU, RASA1 / Fold change vs veh, RASA1 / RFU, RB1 / Fold change vs veh, RB1 / RFU, PPFIA1 / Fold change vs veh, PPFIA1 / RFU, MAT2A / Fold change vs veh, MAT2A / RFU, CCT5 / Fold change vs veh, CCT5 / RFU, WDR92 / Fold change vs veh, WDR92 / RFU, CUX1 / Fold change vs veh, CUX1 / RFU, TTC7A / Fold change vs veh, TTC7A / RFU, TMEM135 / Fold change vs veh, TMEM135 / RFU, DEPTOR / Fold change vs veh, DEPTOR / RFU, CPM / Fold change vs veh, CPM / RFU, DNAJB6 / Fold change vs veh, DNAJB6 / RFU, CACNA2D3 / Fold change vs veh, CACNA2D3 / RFU, DTX4 / Fold change vs veh, DTX4 / RFU, TFCP2 / Fold change vs veh, TFCP2 / RFU, GMCL1 /// GMCL1P1 / Fold change vs veh, GMCL1 /// GMCL1P1 / RFU, AEBP2 / Fold change vs veh, AEBP2 / RFU, SNHG1 /// SNORD22 /// SNORD25 /// SNORD26 /// SNORD27 /// SNORD28 /// SNORD29 /// SNORD31 / Fold change vs veh, SNHG1 /// SNORD22 /// SNORD25 /// SNORD26 /// SNORD27 /// SNORD28 /// SNORD29 /// SNORD31 / Fold change (Aza/veh), C12orf56 (ProbeSet 11735607_a_at) / Fold change (ACY-1035/veh), C12orf56 (ProbeSet 11735607_a_at) / Fold change (Aza/veh), FGFR1OP (ProbeSet 11751329_s_at) / Fold change (ACY-1035/veh), FGFR1OP (ProbeSet 11751329_s_at) / Fold change (Aza/veh), VPS36 (ProbeSet 11739960_a_at) / Fold change (ACY-1035/veh), VPS36 (ProbeSet 11739960_a_at) / RFU SYPL1 (11715823_x_at) / Fold change /veh SYPL1 (11715823_x_at) / RFU IGFBP7 (11715501_s_at) / Fold change /veh IGFBP7 (11715501_s_at) / RFU REEP3 (11722064_at) / Fold change /veh REEP3 (11722064_at) / RFU IGLL1 (11728026_x_at) / Fold change /veh IGLL1 (11728026_x_at): dose or concentration left out as unconfirmed
Settings: ProbeSet 11743580_s_at; LIST B

With `Nc1ccc(-c2cccs2)cc1NC(=O)c1ccc2c(c1)cc(C1CC1)n2CCN1CCOCC1` [ACY-1035] the “RFU, ACTR2” value was 854.57 RFU.
